Paper PMC5796108, “Effects of Acanthopanax senticosus on Brain Injury Induced by Simulated Spatial Radiation in Mouse Model Based on Pharmacokinetics and Comparative Proteomics” (International Journal of Molecular Sciences, 2018)
Where two headings read alike, the source gives them in different places.

Assay: Pharmacokinetics of syringin and eleutheroside E in mice's serum after oral AS extract (HPLC, PKsolver)
Assay type: in vivo, Kun-Ming mice
Conditions: oral AS extract 235.7 mg/kg; for MRT inf: read-out: MRT(0→∞)
Description: The radiation lasted 30 min. […] The serum was preserved at −20 °C standby.
The content of syringin and eleutheroside E in the samples for each time points was detected by HPLC. An Agilent 1100 series liquid chromatograph (Agilent Technologies, Santa Clara, CA, USA), equipped with a quaternary gradient pump and a UV detector was used. A HPLC method was developed using a reversed-phase C18 column (Agilent-TC, 250 mm × 4.6 mm, 5 μm i.d.) with the column temperature at 30 °C. […] The retention times are 6.041 min and 8.500 min for Syringin and eleutheroside E respectively. Contents of syringin and eleutheroside E were expressed in each case as nanograms of syringin and eleutheroside E per milliliter of mice serum.

[1] = Radiation-AS-Treatment (60Co-γ, 4 Gy)
[2] = male, Kun-Ming, mouse, po, 235.7 mg/kg, Normal-AS-Treatment
[3] = male, Kun-Ming, mouse, po, 235.7 mg/kg, Radiation-AS-Treatment (60Co-γ, 4 Gy)

With `COc1cc([C@H]2OC[C@@H]3[C@@H]2CO[C@H]3c2cc(OC)c(O[C@@H]3O[C@H](CO)[C@@H](O)[C@H](O)[C@H]3O)c(OC)c2)cc(OC)c1O[C@@H]1O[C@H](CO)[C@@H](O)[C@H](O)[C@H]1O` [Eleutheroside E] the “AUC(0→∞)” value (Normal-AS-Treatment) was 9.93 × 10^3 ± 1.81 × 10^3 ng⋅h⋅mL^−1, the CL (Normal-AS-Treatment) was 8.30 × 10^−2 ± 7.32 × 10^−3 L⋅h^−1⋅g^−1 and the Cmax (Normal-AS-Treatment) was 2.07 × 10^3 ± 6.61 × 10^2 ng⋅mL^−1. The “MRT(0→∞)” value (Normal-AS-Treatment) was 14.8 ± 0.597 h, the Tmax (Normal-AS-Treatment) was 0.5 ± 0.192 h and the t1/2 (Normal-AS-Treatment) was 17.2 ± 0.722 h. The “AUC(0→∞)” value [1] was 1.20 × 10^4 ± 3.63 × 10^3 ng⋅h⋅mL^−1, the CL [1] was 6.89 × 10^−2 ± 7.17 × 10^−3 L⋅h^−1⋅g^−1 and the Cmax [1] was 2.11 × 10^3 ± 5.93 × 10^2 ng⋅mL^−1. For the same compound, the “MRT(0→∞)” value [1] was 21.1 ± 0.701 h, the Tmax [1] was 0.5 ± 0.321 h and the t1/2 [1] was 2.51 × 10^1 ± 5.56 × 10^0 h.

For `COc1cc(/C=C/CO)cc(OC)c1O[C@@H]1O[C@H](CO)[C@@H](O)[C@H](O)[C@H]1O` [Syringin], the CL (Normal-AS-Treatment) was 2.91 × 10^0 ± 5.65 × 10^−1 L⋅h^−1⋅g^−1, the Vd (Normal-AS-Treatment) was 2.72 × 10^1 ± 8.73 × 10^−1 L⋅g^−1 and the CL [1] was 1.54 × 10^0 ± 1.86 × 10^−1 L⋅h^−1⋅g^−1. For the same compound, the Tmax [1] was 0.5 ± 0.237 h, the Vd [1] was 2.17 × 10^1 ± 9.19 × 10^−1 L⋅g^−1 and the Tmax (male, Kun-Ming, mouse, Normal-AS-Treatment, read-out: Tmax) was 0.5 h. For the same compound, the AUC(0-inf) [2] was 283 ng·h/mL, the half-life [2] was 6.47 h and the Cmax (male, Kun-Ming, mouse, po, 235.7 mg/kg, Normal-AS-Treatment, read-out: Cmax) was 170 ng/mL. It also gave an MRT inf [2] of 4.58 h, an AUC(0-inf) [3] of 534 ng·h/mL and a half-life [3] of 9.72 h. It also gave a Cmax (male, Kun-Ming, mouse, po, 235.7 mg/kg, Radiation-AS-Treatment (60Co-γ, 4 Gy), read-out: Cmax) of 212 ng/mL and an MRT inf [3] of 5.95 h.
